The text below walks through data of patent publication US20230190735A1 (TFF Pharmaceuticals, Inc., priority 2021, published 2023).

In data set [1] the target is CYP3A (Homo sapiens, UniProt P08684). To be noted: in vitro studies; CYP3A4; cited from earlier work.
The conditions of data set [2]: major metabolite of voriconazole; cited from earlier work.
In data set [3] the target is CYP2C9 (Homo sapiens, UniProt P11712). To be noted: in vitro studies; cited from earlier work.
For data set [4] the following is noted: cited from earlier work; for reduction of mean AUC with high-fat meals: multiple doses.
Data set [5] relates to CYP3A. The settings on record: CYP3A; total drug; Ki values based on Jeong 2009; cited from earlier work.
Data set [6] deals with T1, CYP2B6 (Homo sapiens, UniProt P20813).
T1 sequence (P20813 1-491): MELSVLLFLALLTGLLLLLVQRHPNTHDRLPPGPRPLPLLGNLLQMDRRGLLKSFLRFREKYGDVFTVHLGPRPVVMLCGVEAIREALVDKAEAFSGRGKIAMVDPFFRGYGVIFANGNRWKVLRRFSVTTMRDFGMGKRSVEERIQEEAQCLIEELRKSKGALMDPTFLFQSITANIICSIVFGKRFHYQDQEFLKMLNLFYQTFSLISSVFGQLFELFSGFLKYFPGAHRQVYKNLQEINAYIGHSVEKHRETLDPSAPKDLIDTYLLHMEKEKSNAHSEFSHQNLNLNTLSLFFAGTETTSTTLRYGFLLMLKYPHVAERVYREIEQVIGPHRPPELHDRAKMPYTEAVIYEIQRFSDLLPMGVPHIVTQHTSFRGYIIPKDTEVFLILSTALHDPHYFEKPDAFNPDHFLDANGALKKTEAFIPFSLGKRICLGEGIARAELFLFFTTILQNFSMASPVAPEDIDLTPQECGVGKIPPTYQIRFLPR
To be noted: total drug, Ki values based on Jeong 2009; cited from earlier work.

The conditions of data set [7]: independent of plasma concentration (approx. 0.9-15 μg/mL); cited from earlier work.
Data set [8] in a line: PK of systemically administered (oral or IV) voriconazole, VFEND package insert and literature. It is filed as in vivo, human. To be noted: Imax = Cmax/MW.
Setting [9] is: 3 mg/kg IV q12h, geometric mean (% CV).
[10] abbreviates: 4 mg/kg IV q12h, geometric mean (% CV).
[11] abbreviates: 6 mg/kg IV (loading dose), geometric mean (% CV).
Where [12] appears, read: 200 mg oral q12h, geometric mean (% CV).
Where [13] appears, read: 300 mg oral q12h, geometric mean (% CV).
The mark [14] stands for this setting: 400 mg oral (loading dose), geometric mean (% CV).

The structures appear in SMILES notation. Like-named read-outs stand apart in the source and are kept apart here. Some results are limits rather than exact numbers.

Sequence of CYP3A (Homo sapiens, UniProt P08684) (P08684 2-503): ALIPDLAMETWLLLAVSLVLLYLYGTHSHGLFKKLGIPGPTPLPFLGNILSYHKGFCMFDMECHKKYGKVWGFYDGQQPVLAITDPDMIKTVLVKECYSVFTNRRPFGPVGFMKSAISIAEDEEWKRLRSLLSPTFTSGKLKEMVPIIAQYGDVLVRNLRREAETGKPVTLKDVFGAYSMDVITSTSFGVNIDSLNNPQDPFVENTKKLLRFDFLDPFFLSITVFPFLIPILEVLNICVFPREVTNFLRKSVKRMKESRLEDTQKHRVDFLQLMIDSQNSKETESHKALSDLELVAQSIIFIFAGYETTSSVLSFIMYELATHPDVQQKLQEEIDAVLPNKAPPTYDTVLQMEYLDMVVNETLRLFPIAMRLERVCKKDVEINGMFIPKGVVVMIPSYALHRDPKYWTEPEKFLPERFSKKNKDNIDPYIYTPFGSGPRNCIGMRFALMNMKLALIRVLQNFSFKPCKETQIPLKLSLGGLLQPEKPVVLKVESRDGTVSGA
Sequence of CYP2C9 (P11712 whole entry): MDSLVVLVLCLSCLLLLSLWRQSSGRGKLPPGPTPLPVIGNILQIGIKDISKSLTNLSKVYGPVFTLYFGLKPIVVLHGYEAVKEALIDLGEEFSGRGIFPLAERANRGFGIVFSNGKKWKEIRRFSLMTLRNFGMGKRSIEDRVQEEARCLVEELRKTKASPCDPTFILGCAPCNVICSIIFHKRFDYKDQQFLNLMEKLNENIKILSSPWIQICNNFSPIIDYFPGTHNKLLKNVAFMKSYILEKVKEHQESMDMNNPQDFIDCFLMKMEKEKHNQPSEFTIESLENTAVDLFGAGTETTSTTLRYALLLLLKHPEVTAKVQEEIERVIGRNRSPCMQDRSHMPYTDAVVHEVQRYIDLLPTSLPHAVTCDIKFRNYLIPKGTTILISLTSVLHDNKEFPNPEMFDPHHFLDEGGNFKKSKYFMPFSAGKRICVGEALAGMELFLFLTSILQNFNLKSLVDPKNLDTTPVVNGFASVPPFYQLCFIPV

As for `C[C@@H](c1nc[n+]([O-])cc1F)[C@](O)(Cn1cncn1)c1ccc(F)cc1F` [N-oxide], the “inhibition of metabolic activity of CYP3A4” value in data set [1] was “inhibits”. Besides, the antifungal activity result in data set [2] is recorded as “minimal antifungal activity”. Further, the “inhibition of metabolic activity of CYP2C9” value in data set [3] was “inhibits”. For the same compound, the “share of circulating radiolabeled metabolites in plasma” value in data set [4] (after radiolabeled voriconazole) is recorded as 72%.
On to `C[C@@H](c1ncncc1F)[C@](O)(Cn1cncn1)c1ccc(F)cc1F` [Voriconazole, (2R,3S)-2-(2,4-difluro-phenyl)-3-(5-flouro-4-pyrimidinyl)-1 (1H-1,2,4-triazol-1-yl)2-butanol], for which the Ki (as a rule, the equilibrium dissociation constant of an inhibitor or competing ligand from its target) in data set [5] was 660 nM; in data set [6], under 500 nM. Also, in data set [7], the Plasma protein binding is recorded as 58%. In addition, the Imax oral turned out to be 6.61 µM in data set [8] (based on 200 mg q12h from VFEND label) and 3.50 µM in data set [8] (based on Cmax from Anderson 2017). Also, the AUC12 in data set [4] (setting [9]) is reported as 13.7 (53) μg:h/mL; in data set [4] (setting [10]), 33.9 (54) μg:h/mL; in data set [4] (setting [11]), 13.9 (32) μg:h/mL; in data set [4] (200 mg oral q12h, adults, geometric mean (% CV)), 12.4 (78) μg · h/mL; in data set [4] (setting [12]), 12.4 (78) μg:h/mL; in data set [4] (300 mg oral q12h, adults, geometric mean (% CV)) it was 34.0 (53) μg · h/mL. Moreover, the AUC12 is on record as 34.0 (53) μg:h/mL in data set [4] (setting [13]); 9.31 (38) μg · h/mL in data set [4] (400 mg oral (loading dose), adults, geometric mean (% CV)); 9.31 (38) μg:h/mL in data set [4] (setting [14]). Besides, the Cmax in data set [4] (setting [9]) is on record as 3.03 (25) μg/mL; in data set [4] (setting [10]), 4.77 (36) μg/mL; in data set [4] (setting [11]) it was 3.13 (20) μg/mL; in data set [4] (setting [12]), 2.31 (48) μg/mL; in data set [4] (setting [13]) it was 4.74 (35) μg/mL; in data set [4] (setting [14]) it was 2.30 (19) μg/mL. Besides, in data set [4] (oral 200 mg dose), the Cmax is recorded as 2310 ng/mL. Further, the “reduction of mean AUC with high-fat meals” value in data set [4] (oral suspension) is given as 37%; in data set [4] (tablet), 24%. Also, the “volume of distribution at steady state” value in data set [4] (oral or IV administration) is on record as 4.6 L/kg. Moreover, the oral bioavailability in data set [4] (population PK analysis, healthy subjects (N=207)) is 96%.
